Laboratory results as given in US9902696B2, “1,4-substituted piperidine derivatives” (Cephalon, Inc., priority 2015, dated 2018).
Structures can show the parent of a compound that is named as a salt.

Each compound was assayed against T1, recombinant human baculovirus-expressed GST-tagged FASN (Homo sapiens, UniProt P49327) (assay: FASN enzyme activity assay, fluorescence-based detection of CoA with CPM). Conditions: 5 nM FASN, 150 μM NADPH, 10 μM acetyl-CoA, 25 μM malonyl-CoA, 90 minutes incubation; read-out: IC50 data for Compounds of Formulae I-V/V(a): Activity.
T1 construct: GST
Format: biochemical
Procedure, shortened: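 CoA product reacted with thiol-reactive CPM (diluted to 50 μM in 70% ethanol), read at 390/530 nm after 30 min. Preceding reaction: 90 min, 5 nM recombinant GST-FASN, 150 μM NADPH, 10 μM acetyl-CoA, 25 μM malonyl-CoA, pH 7.5 HEPES, 0.5% DMSO. IC50s fitted by nonlinear sigmoidal regression.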

T1 sequence (P49327 whole entry): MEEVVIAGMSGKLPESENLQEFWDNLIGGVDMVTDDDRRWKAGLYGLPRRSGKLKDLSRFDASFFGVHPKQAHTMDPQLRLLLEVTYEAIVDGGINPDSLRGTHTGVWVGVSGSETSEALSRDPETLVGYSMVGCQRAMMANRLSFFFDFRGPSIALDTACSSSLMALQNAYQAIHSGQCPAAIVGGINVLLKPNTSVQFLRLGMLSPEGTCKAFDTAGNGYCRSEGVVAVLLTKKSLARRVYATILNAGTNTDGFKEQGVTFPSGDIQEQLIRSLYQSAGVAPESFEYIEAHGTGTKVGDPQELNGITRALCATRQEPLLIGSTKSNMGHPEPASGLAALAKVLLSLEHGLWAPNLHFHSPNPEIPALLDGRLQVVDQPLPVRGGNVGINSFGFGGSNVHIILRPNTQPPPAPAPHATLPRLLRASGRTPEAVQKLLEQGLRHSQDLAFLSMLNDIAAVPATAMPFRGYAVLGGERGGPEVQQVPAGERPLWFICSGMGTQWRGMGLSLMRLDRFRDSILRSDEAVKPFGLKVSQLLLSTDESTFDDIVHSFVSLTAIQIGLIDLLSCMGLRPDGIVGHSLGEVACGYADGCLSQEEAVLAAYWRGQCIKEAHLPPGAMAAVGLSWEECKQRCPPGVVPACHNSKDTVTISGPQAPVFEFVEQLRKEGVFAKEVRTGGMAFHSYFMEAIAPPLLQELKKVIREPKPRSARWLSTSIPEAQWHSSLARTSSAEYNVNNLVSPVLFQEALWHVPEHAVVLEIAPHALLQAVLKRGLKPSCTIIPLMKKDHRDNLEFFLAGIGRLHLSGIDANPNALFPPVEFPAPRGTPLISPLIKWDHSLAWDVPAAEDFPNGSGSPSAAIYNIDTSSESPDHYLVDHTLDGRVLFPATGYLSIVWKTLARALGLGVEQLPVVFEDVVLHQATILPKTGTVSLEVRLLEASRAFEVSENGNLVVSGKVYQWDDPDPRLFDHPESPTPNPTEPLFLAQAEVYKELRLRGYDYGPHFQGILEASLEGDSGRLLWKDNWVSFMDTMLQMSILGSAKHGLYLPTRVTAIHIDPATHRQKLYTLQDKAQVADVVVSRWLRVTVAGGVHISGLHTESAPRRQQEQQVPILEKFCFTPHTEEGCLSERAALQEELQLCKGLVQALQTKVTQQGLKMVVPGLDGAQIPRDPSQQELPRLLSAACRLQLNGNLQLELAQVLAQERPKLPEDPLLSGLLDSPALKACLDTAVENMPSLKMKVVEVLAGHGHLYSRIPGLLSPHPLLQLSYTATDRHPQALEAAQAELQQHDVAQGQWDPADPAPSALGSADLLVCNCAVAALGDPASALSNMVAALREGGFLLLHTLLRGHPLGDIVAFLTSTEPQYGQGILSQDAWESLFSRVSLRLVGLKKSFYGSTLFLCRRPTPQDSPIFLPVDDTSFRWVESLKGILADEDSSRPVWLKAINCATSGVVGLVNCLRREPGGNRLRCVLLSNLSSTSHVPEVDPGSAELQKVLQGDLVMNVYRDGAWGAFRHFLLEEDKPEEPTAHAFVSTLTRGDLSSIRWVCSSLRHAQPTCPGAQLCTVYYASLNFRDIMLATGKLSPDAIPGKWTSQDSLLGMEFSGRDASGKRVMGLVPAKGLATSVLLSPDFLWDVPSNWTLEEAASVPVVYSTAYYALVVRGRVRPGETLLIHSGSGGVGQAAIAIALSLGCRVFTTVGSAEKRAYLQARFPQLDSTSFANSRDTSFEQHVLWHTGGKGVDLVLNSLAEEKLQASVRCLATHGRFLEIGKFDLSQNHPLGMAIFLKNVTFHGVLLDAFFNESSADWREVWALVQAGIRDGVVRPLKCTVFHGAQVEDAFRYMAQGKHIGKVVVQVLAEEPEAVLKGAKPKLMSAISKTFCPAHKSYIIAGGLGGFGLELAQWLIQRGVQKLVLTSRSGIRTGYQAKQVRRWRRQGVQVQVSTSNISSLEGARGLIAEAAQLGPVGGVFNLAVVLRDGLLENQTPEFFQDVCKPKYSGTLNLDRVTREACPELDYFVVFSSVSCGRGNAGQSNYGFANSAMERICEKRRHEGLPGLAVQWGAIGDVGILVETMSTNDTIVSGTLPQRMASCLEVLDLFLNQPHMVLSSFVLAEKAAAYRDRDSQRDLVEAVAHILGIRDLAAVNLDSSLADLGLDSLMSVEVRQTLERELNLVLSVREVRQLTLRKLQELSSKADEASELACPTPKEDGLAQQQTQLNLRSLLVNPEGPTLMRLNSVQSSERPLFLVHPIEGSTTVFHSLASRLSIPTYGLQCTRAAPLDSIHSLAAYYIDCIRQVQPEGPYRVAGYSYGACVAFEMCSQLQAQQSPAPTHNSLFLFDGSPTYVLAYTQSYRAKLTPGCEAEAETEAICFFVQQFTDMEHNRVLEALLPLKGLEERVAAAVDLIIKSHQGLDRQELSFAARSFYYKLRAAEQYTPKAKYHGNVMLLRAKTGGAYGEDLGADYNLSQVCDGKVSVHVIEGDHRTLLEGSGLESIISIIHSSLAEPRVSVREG

IC50, 1 to 10 µM:
O=C(C1CCC1)N1CCC(Oc2ccc(-c3cncc(-c4ccccc4)c3)cc2)CC1 [Example 385, Cyclobutyl-{4-[4-(5-phenylpyridin-3-yl)-phenoxy]-piperidin-1-yl}-methanone, TFA salt]
CCC(=O)N1CCC(Oc2ccc(-c3ccc(N4CCOCC4)nc3)cc2)CC1 [Example 386, 1-{4-[4-(6-Morpholin-4-yl-pyridin-3-yl)-phenoxy]-piperidin-1-yl}-propan-1-one]
O=C(C1CC1)N1CCC(Oc2ccc(-c3ccc(N4CCOCC4)nc3)cc2)CC1 [Example 387, Cyclopropyl-{4-[4-(6-morpholin-4-yl-pyridin-3-yl)-phenoxy]-piperidin-1-yl}-methanone]
O=C(C1CCC1)N1CCC(Oc2ccc(-c3ccc(N4CCOCC4)nc3)cc2)CC1 [Example 388, Cyclobutyl-{4-[4-(6-morpholin-4-yl-pyridin-3-yl)-phenoxy]-piperidin-1-yl}-methanone]
CCC(=O)N1CCC(Oc2ccc(-c3ccc(Oc4ccccc4)nc3)cc2)CC1 [Example 389, 1-{4-[4-(6-Phenoxy-pyridin-3-yl)-phenoxy]-piperidin-1-yl}-propan-1-one]
O=C(C1CC1)N1CCC(Oc2ccc(-c3ccc(Oc4ccccc4)nc3)cc2)CC1 [Example 390, Cyclopropyl-{4-[4-(6-phenoxy-pyridin-3-yl)-phenoxy]-piperidin-1-yl}-methanone]
O=C(C1CCC1)N1CCC(Oc2ccc(-c3ccc(Oc4ccccc4)nc3)cc2)CC1 [Example 391, Cyclobutyl-{4-[4-(6-phenoxy-pyridin-3-yl)-phenoxy]-piperidin-1-yl}-methanone]
O=C(C1CC1)N1CCC(Oc2ccc(-c3ccc(Nc4ccccc4)nc3)cc2)CC1 [Example 393, Cyclopropyl-{4-[4-(6-phenylaminopyridin-3-yl)-phenoxy]-piperidin-1-yl}-methanone, TFA salt]
O=C(C1CCC1)N1CCC(Oc2ccc(-c3ccc(Nc4ccccc4)nc3)cc2)CC1 [Example 394, Cyclobutyl-{4-[4-(6-phenylaminopyridin-3-yl)-phenoxy]-piperidin-1-yl}-methanone, TFA salt]
CCC(=O)N1CCC(Oc2ccc(-c3cccc(-c4ccccn4)c3F)cc2)CC1 [Example 395, 1-[4-(2′-Fluoro-3′-pyridin-2-yl-biphenyl-4-yloxy)-piperidin-1-yl]-propan-1-one]
O=C(C1CC1)N1CCC(Oc2ccc(-c3cccc(-c4ccccn4)c3F)cc2)CC1 [Example 396, Cyclopropyl-[4-(2′-fluoro-3′-pyridin-2-yl-biphenyl-4-yloxy)-piperidin-1-yl]-methanone]
CCC(=O)N1CCC(Oc2ccc(-c3cncc(Oc4ccccc4)c3)cc2)CC1 [Example 397, 1-{4-[4-(5-Phenoxypyridin-3-yl)-phenoxy]-piperidin-1-yl}-propan-1-one, TFA]
O=C(C1CCC1)N1CCC(Oc2ccc(-c3cccc(-c4ccccn4)c3F)cc2)CC1 [Example 398, Cyclobutyl-[4-(2′-fluoro-3′-pyridin-2-yl-biphenyl-4-yloxy)-piperidin-1-yl]-methanone HCl]
O=C(C1CC1)N1CCC(Oc2ccc(-c3cncc(Oc4ccccc4)c3)cc2)CC1 [Example 399, Cyclopropyl-{4-[4-(5-phenoxy-pyridin-3-yl)-phenoxy]-piperidin-1-yl}-methanone, HCl]
O=C(C1CCC1)N1CCC(Oc2ccc(-c3cncc(Oc4ccccc4)c3)cc2)CC1 [Example 400, Cyclobutyl-{4-[4-(5-phenoxypyridin-3-yl)-phenoxy]-piperidin-1-yl}-methanone, HCl]
